“And” between values parts separate entries of the source, which are not always exact repeats. Equal values may be shown once.
Legend:
P. berghei ANKA strain = assay: In vivo antimalarial efficacy in the P. berghei mouse model (Peter's test); design: species or system Plasmodium berghei in female NMRI mice; details: 4 × 30 mg/kg oral, once daily; mice cured / mice in group; 30 mg/kg
Experimental: Compound 41 was dosed as a bolus solution intravenously at 1 mg free base/kg (dose volume: 5 mL/kg; dose vehicle: 5% DMSO;saline) or by gavage orally as solution at 3 mg free base/kg (dose volume: 10 mL/kg; Dose vehicle: 0.5% w/v hydroxypropylmethylcellulose with 0.4% v/v Tween 80 and 0.5% v/v benzyl alcohol) to male Sprague Dawley rats (n=3/dose route). Blood samples were taken from each rat at 5, 15, 30 min, 1, 2, 4, 6, 8, 24 and 30 h post-dose, mixed with two volumes of distilled water and stored frozen until UPLC/MS/MS analysis.
Pharmacokinetic parameters were derived from the blood concentration time curve for each compound using PKsolutions software v 2.0 (Summit Research Services, USA).
In vivo antimalarial efficacy studies in P. berghei. (Swiss TPH)
In vivo efficacy was conducted as previously described10 with the modification that female NMRI mice (n = 3) were infected with a GFP-transfected P. berghei ANKA strain (donated by A. P. Waters and C. J. Janse, Leiden University, The Netherlands), and parasitaemia determined (96 h after infection) using standard flow cytometry techniques. Compounds 1, 25, 27, 30 and 49 were prepared in 10% DM SO, 40% PEG 400 and 50% water prior to administration orally, once daily for 4 days.
Compounds 40, 41, 43 and 44 were prepared in a non-solubilizing, standard suspension vehicle called HPMC (0.5% [wt/vol] hydroxypropylmethylcellulose, 0.5% [vol/vol] benzyl alcohol, 0.4% [vol/vol] Tween 80, and 0.9% [wt/vol] sodium chloride in water) prior to administration orally, once daily for 4 days. Blood samples were collected on day 4 (96 h after infection) in two volumes water. Animals […]
and then hourly up to 4 h after dosing each day. The animals were selected randomly for each group

Rat pharmacokinetics = assay type: in vivo, male Sprague Dawley rats; details: male Sprague Dawley rat, intravenous at 1 mg/kg
Experimental: (100 µl) was then removed from both acceptor and donor compartments and mixed with acetonitrile (80 µl) containing an internal standard. The samples were centrifuged (10 min, 5 °C, 3270 g) to sediment precipitated protein and sealed prior to UPLC-MS/MS analysis using a Quattro Premier XE (Waters Corp, USA). Pe was calculated as shown in the below equation:
Pe (nm/sec) = 107 x - In [1 - CA (t) / Cequi]
CA(t) = peak area of compound present in acceptor well at time t = 18000 sec Cequi = [CD(t) * VD + CA(t) * VA] / (VD + VA)
VA = acceptor well volume
CD(t) = peak area of compound present in donor well at time t = 18000 sec Recovery of compound from donor and acceptor wells was calculated and data was only accepted when recovery exceeded 70 %. […]
Compound was dosed as a bolus solution intravenously (12) at 3mg free base/kg (dose volume: 5 mL/kg; dose vehicle: 10% DMSO, 90% saline) to female NMRI mice (n=3) or dosed orally (12 and 13) by gavage as a solution at 10 mg free base/kg (dose volume: 10mL/kg; Dose vehicle: 5 or 10% DMSO; 40% PEG400; 50 or 55% distilled water) to female NMRI mice (n=3/dose level). […] The level of each compound in mouse blood was determined by UPLC-MS/MS as previously reported.9 Pharmacokinetic parameters were derived from the blood concentration time curve using PKsolutions software v 2.0 (Summit Research Services, USA). […]

[1] = Parallel artificial membrane permeability assay (PAMPA); assay type: in vitro ADME; details: relative to the earlier lead
[2] = Intrinsic clearance in rat hepatocytes; assay type: in vitro ADME
[3] = Oral maximum tolerated dose; details: in vivo, 300 mg/kg

Q: Which cure (P. berghei ANKA strain) does the source give for `O=C(NCCN1CCCC1)c1cc(NCCCCN2CCOCC2)nc2ccc(Cl)cc12` [Compound 27, 6-Chloro-2-((4-morpholinobutyl)amino)-N-(2-(pyrrolidin-1-yl)ethyl)quinoline-4-carboxamide] here?
A: The cure was “one out of three and 1/3”.

Q: With `O=C(NCCN1CCCC1)c1cc(-c2ccc(CN3CCOCC3)cc2F)nc2ccc(F)cc12` [Compound 41] as the molecule, how does the Clb (Rat pharmacokinetics) read?
A: The Clb was 32 mL min^–1 kg^–1.

Q: Which increase in permeability [1] does the source give for `O=C(NCCN1CCCC1)c1cc(NCCC2CCOCC2)nc2ccc(Cl)cc12` [Compound 30, 6-Chloro-N-(2-(pyrrolidin-1-yl)ethyl)-2-((2-(tetrahydro-2H-pyran-4-yl)ethyl)amino)quinoline-4-carboxamide] here?
A: The increase in permeability was “more than 20 fold”.

Q: What about the “intrinsic clearance in rat hepatocytes (Cli)” value [2] of the same molecule?
A: The value was 3 mL min^–1 g^–1.

Q: With `O=C(NCCN1CCCC1)c1cc(NCCCN2CCOCC2)nc2ccc(F)cc12` [Compound 25, 6-Fluoro-2-((3-morpholinopropyl)amino)-N-(2-(pyrrolidin-1-yl)ethyl)quinoline-4-carboxamide] as the molecule, how does the MTD at 4 days [3] read?
A: The MTD at 4 days was over 300 mg/kg.

Source: article PMC5108032, “Discovery of a Quinoline-4-carboxamide Derivative with a Novel Mechanism of Action, Multistage Antimalarial Activity, and Potent in Vivo Efficacy” (Journal of Medicinal Chemistry, 2016)
